# Experiments:
# GPA33 = target: T1, GPA33 (Homo sapiens, UniProt Q99795); test: FACS staining of tumor cell lines; type: cell-based; settings: panel of GPA33(+) and GPA33(−) cell lines
# T1 construct: endogenous in cells; host or cells: human colon cancer cell lines (e.g. LS174T, SW1222, Colo205) and gastric cancer cell line SNU16
# T1 sequence (Q99795 22-319): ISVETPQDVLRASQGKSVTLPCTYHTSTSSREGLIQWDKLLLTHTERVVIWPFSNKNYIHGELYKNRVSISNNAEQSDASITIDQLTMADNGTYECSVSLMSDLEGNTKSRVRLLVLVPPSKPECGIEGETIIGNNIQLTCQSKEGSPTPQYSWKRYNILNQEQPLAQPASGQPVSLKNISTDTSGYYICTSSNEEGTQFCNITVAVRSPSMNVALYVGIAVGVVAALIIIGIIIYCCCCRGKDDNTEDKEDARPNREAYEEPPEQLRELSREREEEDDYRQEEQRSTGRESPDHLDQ
# Text: (§1) Antibodies and flow cytometry. Antibodies anti-hCD25-PE, anti-CD69-PE, anti-hCD8-APC, anti-hCD45-PECy7, anti-hCD4-PE, anti-hCD4-BV421, anti-hCD62L-PercpCy5.5, anti-hPD1-BV421, anti-hCD45RO-PECy7, were purchased from BIOLEGEND® (San Diego, Calif.). Goat anti-human IgG-PE was purchased from SouthernBiotech (Birmingham, Ala.). Streptavidin-PE, anti-hCD4-APC and anti-hCD25-APC were purchased from BD Biosciences (San Jose, Calif.). All FACS analysis was done using FACSCalibur or LSRII system (BD Biosciences, San Jose, Calif.) and analyzed using FlowJo (FLOWJO, Ashland, Oreg.).
# (§2) The avidities of huA33-BsAb towards GPA33 at both 25° C. and 37° C. were measured using GPA33 immobilized CM5 chips.
# CD3 on T cell surface = target: T2, CD3 on T cell surface (Homo sapiens, UniProt P07766); test: FACS staining of activated T cells; type: cell-based
# T2 construct: endogenous in cells
# Text: as §1, §2
# T cells = test: T cell activation and proliferation assay (CFSE-labeled PBMCs plus tumor cells); type: cell-based, human
# Description: T cell proliferation assay. Fresh PBMCs from healthy donors were labeled with […] CFSE (Life Technologies Corp., Carlsbad, Calif.) for 5 min at room temperature, followed by neutralization using PBS containing 5% FBS. Target cells were then incubated with labeled PBMCs under different conditions at 37° C. before analyzing the expression of surface activation markers and T cell proliferation at 24 hours and 96 hours.
# HuA33-BsAb activated and induced cell cycle entry of fresh T cells.
# Colo205 cells = test: TDCC assay with sorted fresh T cell subsets; type: cell-based, human
# Description: T-cell dependent cytotoxicity (TDCC) assays. Cytotoxicity assays were performed using both ^51Cr-release assay and Pierce LDH-release assay (Thermo Fisher Scientific, Cambridge, Mass.). For both assays, T cells activated by exposure to anti-CD3/anti-CD28 Dynabeads for 14 days were subsequently used as effector cells, excepted for sorted cells from PBMCs, which were used for TDCC assay without prior stimulation. ^51Cr assay was performed as previously described in Cheng M et al., International Journal of Cancer 136:476-486 (2015). LDH assay was conducted according to the manufacturer's instructions with the following modifications. Briefly, for each assay well of a 96-well round-bottom plate, 1.5×10^4 target cells were incubated with variable number of effector cells, depending on the intended E:T ratios. […] Each condition was done in triplicates. Supernatant was then transferred to a flat bottom plate with reaction substrate and incubated for 30 min before reading at 490 nm, with 680 nm as a reference wavelength. EC50 values were calculated by fitting the curves to a 4-parameter nonlinear regression model using GraphPad Prism.
# To determine which subsets of T cells were mobilized by huA33-BsAb, CD45RA(+)CD62L(+) and CD45RA(−)CD45RO(+)CD62L(−) memory subsets from both CD4(+) and CD8(+) T cells were sorted. […]
# Colo205 tumors = test: s.c. Colo205 xenograft with PBMCs; type: in vivo, mice
# Description: (§3) In vivo tumor therapy. For subcutaneous (s.c.) tumor models, LS174T, Colo205 or SNU16 cells were combined with fresh PBMCs at a 1:1 ratio, mixed with […]® (volume of cell:gel=1:2), and implanted (100 μl/mouse) at the flank of Balb/c Rag2^−/−IL2Rγ^−/− (DKO) mice (now commercially available from Taconic as CIEA BRG mice). Treatment started after confirmation of tumor presence with a BIW schedule at 100 μg/mouse and continued for 3-4 weeks. Tumor growth was monitored by weekly measurement of tumor volume using a caliper or a digital device Peira TM900 Scanner (Peira Scientific Instruments, Turnhout, Belgium).
# HuA33-BsAb cured MSS tumor COLO205 in a s.c. xenograft model and suppressed tumor growth of metastatic MSS tumor SW1222. Two MSS colon cancer cell lines Colo205 and SW1222 were tested. For Colo205 cells, tumors were implanted subcutaneously with PBMCs as effector cells.
# SNU16 tumors = test: s.c. SNU16 gastric cancer xenograft with PBMCs; type: in vivo, mice; settings: s.c. SNU16 mixed with human PBMCs
# Description: as §3
# HuA33-BsAb inhibited growth of gastric cancers in a s.c. xenograft model. GPA33 is expressed in a subset of gastric cancer cells. […] Unlike NSG mice, DKO mice were more resistant to engraftment of human PBMCs.
# T2 sequence (P07766 23-207): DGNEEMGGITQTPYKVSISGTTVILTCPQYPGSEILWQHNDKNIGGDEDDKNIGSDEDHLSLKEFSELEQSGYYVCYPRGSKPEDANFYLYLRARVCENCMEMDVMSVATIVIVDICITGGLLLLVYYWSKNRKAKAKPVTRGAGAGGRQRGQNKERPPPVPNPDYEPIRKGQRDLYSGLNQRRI
# T2 sequence (P09693 23-182 partner): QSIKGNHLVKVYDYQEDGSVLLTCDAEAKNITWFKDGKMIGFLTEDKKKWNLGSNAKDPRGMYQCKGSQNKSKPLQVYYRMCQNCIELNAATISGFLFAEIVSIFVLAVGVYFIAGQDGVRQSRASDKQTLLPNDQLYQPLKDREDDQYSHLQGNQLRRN
# T2 sequence (P04234 22-171 partner): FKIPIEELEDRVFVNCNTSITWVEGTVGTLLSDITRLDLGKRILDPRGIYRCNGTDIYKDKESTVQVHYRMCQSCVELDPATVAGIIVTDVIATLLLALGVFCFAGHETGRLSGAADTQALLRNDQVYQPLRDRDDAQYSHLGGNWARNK
# T2 sequence (P20963 22-164 partner): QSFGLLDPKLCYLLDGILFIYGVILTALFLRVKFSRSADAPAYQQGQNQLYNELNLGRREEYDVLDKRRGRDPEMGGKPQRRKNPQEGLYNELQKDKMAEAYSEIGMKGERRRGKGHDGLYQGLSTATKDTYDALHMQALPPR
substance,measurement,setting,value
"huA33-BsAb: huA33 IgG with humanized OKT3 scFv fused to light chain C-terminus, N297A and K322A; SEQ ID NO: 19 and 21",FACS staining of cancer cell lines,GPA33,"stained colon cancer cell lines and one gastric cancer cell line but not GPA33(−) neuroblastoma cell line IMR32, osteosarcoma cell line TC32 or melanoma cell line SKMEL5"
same,staining of activated T cells,CD3 on T cell surface,bound to CD3 on T cell surface
same,PD-1 upregulation on T cells,"T cells; PBMCs + Colo205, 24 and 96 hours",PD-1 upregulation was observed after 24 hours and persisted until 96 hours
same,T cell division by CFSE dye dilution,"T cells; PBMCs + Colo205, 96 hours",observed in both CD4(+) and CD8(+) T cells after 96 hours
same,T cell activation (upregulation of CD25 and CD69 markers),"T cells; PBMCs + Colo205, E:T 5, 1 μg/ml, 24 hours",caused activation of both CD4(+) and CD8(+) T cells
same,T cell activation with GPA33(−) target cells,"T cells; SKMEL5 target cells, 96 hours",did not activate T cells
same,CD25 expression on T cells from the TDCC assay,"Colo205 cells; CD45RO+ and CD45RO− fractions, 48 hours",CD25 expression was upregulated
same,cytotoxicity by sorted T cell subsets,"Colo205 cells; Colo205, E:T 5:1, 48 hours, LDH assay",both CD4(+) and CD8(+) memory T cell subsets were capable of inducing cytotoxicity
same,tumor response,Colo205 tumors; 4 doses,completely eradicate Colo205 tumors
same,time mice remained tumor free,Colo205 tumors; after a total of 6 doses,at least 4 months
same,survival,SNU16 tumors,significantly prolonged survival
same,tumor response,SNU16 tumors,effectively cured the mice harboring s.c. tumors
